In patent US11643474B2, “Peptide fusion protein” (KAGOSHIMA UNIVERSITY, priority 2018, dated 2023):
pKd: −log10 of the molar value.

What was measured:
[1] = test system: human IgG; assay: Affinity measurement to IgG by surface plasmon resonance (BIAcore T200); format: binding; conditions: ligand immobilized onto sensor chip, HBS-EP buffer pH 7.4
Description: The affinity analysis was performed by the following method. First, a solution containing equal amounts of 0.4 M EDC (1-ethyl-3-(3-dimethylaminopropyl)-carbodiimide) and 0.1 M sulfo-NHS (sulfo-N-hydroxysuccinimide)) was injected at a flow rate of […] onto a CMS sensor chip set in BIAcore T200 (GE healthcare), thereby activating the sensor chip. Then, under the condition of pH 5.5 (10 mM Na acetate), the purified protein (sfGFP-C-1Opt1) described above was immobilized onto the sensor chip. For the measurement, HBS-EP buffer (10 mM HEPES, 150 mM NaCl, 0.005% Tween 20, 3 mM EDTA, pH 7.4) was used, and the binding reaction was monitored by injecting 6.25, 12.5, 25, 50, 100, 200, and 400 nM human IgG for 180 seconds at a flow rate of […]. For measuring the dissociation reaction, only the buffer was injected for 600 seconds. The analysis of interaction parameters was performed using BIA evalution T100 software.
As Comparative Example 1, a scaffold protein (sfGFP having a His tag; DNA sequence: SEQ ID NO: 40, amino acid sequence: SEQ ID NO: 41) to which an IgG-binding peptide was not fused was expressed and purified in the same manner as in Example 1, and affinity was measured.
Proteins including two IgG-binding peptides, each consisting of the amino acid sequences represented by SEQ ID NO: 45, SEQ ID NO: 47, and SEQ ID NO: 49 (sfGFP-N C-2Opt1GS12 (DNA sequence: SEQ ID NO: 44), sfGFP-173 C-2Opt1 GS12 (DNA sequence: SEQ ID NO: 46), and sfGFP-173 C-2Opt1GS13 (DNA sequence: SEQ ID NO: 48)) were expressed and purified by the same method as in Example 1, and the affinity was measured.
As Comparative Example 2, the affinity measurement of the peptide (amino acid sequence: SEQ ID NO: 18) prepared by chemical synthesis was carried out in the same manner as in Example 1.

[2] = test system: human serum-derived γ-globulin; assay: Dynamic binding capacity (DBC) measurement on ligand-immobilized NHS-activated prepack column; conditions: 1 mL column; 1 mg/mL γ-globulin at 1 mL/min; 10% breakthrough at 280 nm; equimolar ligand (7.3 mg protein or 0.5 mg peptide)
Description: To examine whether the IgG-binding peptide divalent fusion protein can be used as an affinity ligand for human antibody purification, the protein prepared in Example 2 (sfGFP-173 C-2Opt1 GS12) was immobilized on an NHS-activated prepack column (GE Healthcare), and the adsorption performance was evaluated. The protein-immobilized column was prepared by the following method. A syringe was used to feed the solution.
5 mL of 1 mM hydrochloric acid was fed to a NHS-activated prepack column with a volume of 1 mL to remove the isopropanol solution in the column. Then, 1 mL of a coupling solution (200 mM carbonate buffer, 500 mM sodium chloride, pH 8.3) containing 7.3 mg of an IgG-binding peptide fusion protein was fed and immobilized at room temperature for 1 hour. The unreacted NHS ester was blocked by adding tris-hydroxymethylaminomethane. Finally, 5 mL of an adsorption solution (20 mM phosphate buffer, 150 mM sodium chloride, pH 7.4) was fed and used for DBC measurement.
The DBC measurement was performed using a liquid chromatography instrument AKTAexplore (GE Healthcare). […] The DBC was determined from the amount of the sample fed until the value of an absorbance at 280 nm excluding the non-adsorbed component reached 10% of the absorbance of the entire sample. […]

Sequence: GPDCAYHRGELVWCTFH [Comparative Example 2, reference compound]
- kon ([1]; 6.25-400 nM human IgG injected 180 s): 330000 M⁻¹ s⁻¹
- koff ([1]; buffer only injected 600 s for dissociation): 0.0048 s⁻¹
- pKd ([1]; human IgG as analyte): 7.85
- DBC (dynamic binding capacity) [2]: 6.9 mg/mL-column
